System: KRAS patient-derived spheroids with HUVEC/MSC, viability
Experiment: Anticancer human tumor 323965-272-R-J2-PDC patient-derived pancreatic carcinoma cell line growth inhibition [KRAS2]
Settings: for IC50: curve of first compound; for viability, T/C: stronger effect = lower value; active means viability on the fitted dose curve at most 10% of control; inactive means the rest
Outline: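 Combination screen of spheroid viability in tumor-cell co-cultures with endothelial (HUVEC) and mesenchymal stem cell stroma. Each agent was tested in half-log dilutions, topping at clinical Cmax or at 10 microM without a known Cmax.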

[1] = second compound 0.1 µM, first compound 0.0316 µM
[2] = second compound 0.1 µM, first compound 0.1 µM
[3] = second compound 0.1 µM, first compound 0.316 µM
[4] = second compound 0.1 µM, first compound 1 µM
[5] = second compound 0.316 µM, first compound 0.0316 µM
[6] = second compound 0.316 µM, first compound 0.1 µM
[7] = second compound 0.316 µM, first compound 0.316 µM
[8] = second compound 0.316 µM, first compound 1 µM
[9] = second compound 1 µM, first compound 0.0316 µM
[10] = second compound 1 µM, first compound 0.1 µM
[11] = second compound 1 µM, first compound 0.316 µM
[12] = second compound 1 µM, first compound 1 µM
[13] = second compound 3.16 µM, first compound 0.0316 µM
[14] = second compound 3.16 µM, first compound 0.1 µM
[15] = second compound 3.16 µM, first compound 0.316 µM
[16] = second compound 3.16 µM, first compound 1 µM
[17] = second compound 10 µM, first compound 0.0316 µM
[18] = second compound 10 µM, first compound 0.1 µM
[19] = second compound 10 µM, first compound 0.316 µM
[20] = second compound 10 µM, first compound 1 µM
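Further: spheroids exposed to agents for 7 days.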
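Wherever viability, T/C is given: 100% = DMSO vehicle control viability.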

CC(C)NCC(C(=O)N1CCN(c2ncnc3c2C(C)CC3O)CC1)c1ccc(Cl)cc1 (stereo not given) + C=CC(=O)N1CCN(c2nc(=O)n(-c3c(C)ccnc3C(C)C)c3nc(-c4c(O)cccc4F)c(F)cc23)C(C)C1
< 31.6 nM: IC50 (second compound 10 µM)
175 nM: IC50 (second compound 0.1 µM)
inactive: viability, T/C [1] 62.4% | viability, T/C [2] 56.3% | viability, T/C [3] 43.5% | viability, T/C [4] 32.4% | viability, T/C (second compound 0.1 µM, first compound 3.16 µM) 27.1% | viability, T/C (second compound 0.1 µM, first compound 10 µM) 23.8% | viability, T/C [5] 56.8% | viability, T/C [6] 49.2% | viability, T/C [7] 40.2% | viability, T/C [8] 33% | viability, T/C (second compound 0.316 µM, first compound 3.16 µM) 26% | viability, T/C (second compound 0.316 µM, first compound 10 µM) 22.6% | viability, T/C [9] 61.2% | viability, T/C [10] 55% | viability, T/C [11] 42.3% | viability, T/C [12] 29.8% | viability, T/C (second compound 1 µM, first compound 3.16 µM) 26.4% | viability, T/C (second compound 1 µM, first compound 10 µM) 27.7% | viability, T/C [13] 52.1% | viability, T/C [14] 47.3% | viability, T/C [15] 37.8% | viability, T/C [16] 28.3% | viability, T/C (second compound 3.16 µM, first compound 3.16 µM) 26.9% | viability, T/C (second compound 3.16 µM, first compound 10 µM) 27.4% | viability, T/C [17] 42.8% | viability, T/C [18] 49.7% | viability, T/C [19] 30.5% | viability, T/C [20] 21.5% | viability, T/C (second compound 10 µM, first compound 3.16 µM) 22.9% | viability, T/C (second compound 10 µM, first compound 10 µM) 18%
80.4 nM: IC50 (second compound 0.316 µM)
53.5 nM: IC50 (second compound 3.16 µM)
159 nM: IC50 (second compound 1 µM)

CCN1CCN(Cc2ccc(Nc3ncc(F)c(-c4cc(F)c5nc(C)n(C(C)C)c5c4)n3)nc2)CC1 + C=CC(=O)N1CCN(c2nc(=O)n(-c3c(C)ccnc3C(C)C)c3nc(-c4c(O)cccc4F)c(F)cc23)C(C)C1
inactive: viability, T/C (second compound 0.1 µM, first compound 0.00316 µM) 57.6% | viability, T/C (second compound 0.1 µM, first compound 0.01 µM) 54.7% | viability, T/C [1] 39.8% | viability, T/C [2] 37.5% | viability, T/C [3] 37.1% | viability, T/C [4] 43.1% | viability, T/C (second compound 0.316 µM, first compound 0.00316 µM) 59.8% | viability, T/C (second compound 0.316 µM, first compound 0.01 µM) 46.5% | viability, T/C [5] 38.7% | viability, T/C [6] 29.6% | viability, T/C [7] 33.5% | viability, T/C [8] 43.8% | viability, T/C (second compound 1 µM, first compound 0.00316 µM) 51% | viability, T/C (second compound 1 µM, first compound 0.01 µM) 52.8% | viability, T/C [9] 36.4% | viability, T/C [10] 35.5% | viability, T/C [11] 31.6% | viability, T/C [12] 48.8% | viability, T/C (second compound 3.16 µM, first compound 0.00316 µM) 56.6% | viability, T/C (second compound 3.16 µM, first compound 0.01 µM) 49.1% | viability, T/C [13] 38.1% | viability, T/C [14] 39.5% | viability, T/C [15] 33.4% | viability, T/C [16] 51.5% | viability, T/C (second compound 10 µM, first compound 0.00316 µM) 38.6% | viability, T/C (second compound 10 µM, first compound 0.01 µM) 52.2% | viability, T/C [17] 37.6% | viability, T/C [18] 36.5% | viability, T/C [19] 37.1% | viability, T/C [20] 45.4%
6.62 nM: IC50 (second compound 0.316 µM)
6.49 nM: IC50 (second compound 3.16 µM)
8.91 nM: IC50 (second compound 0.1 µM)
11.7 nM: IC50 (second compound 1 µM)
< 3.16 nM: IC50 (second compound 10 µM)
